Where no end group is shown, it is not given here. [ ]: non-standard residue; d: D form. Hyp = O=C(O)[C@@H]1C[C@@H](O)CN1

Common to all, as to format: cell-based
For assay [1], the system named is human dermal fibroblasts. In words: Sircol collagen assay, collagen synthesis by dermal fibroblasts. Particulars: 0.5 mg/ml peptide, three weeks stimulation. The method, then:
(§1) The human cells used were obtained from tebu-bio GmbH, Offenbach, Germany. The chondrocytes (Cat. No. 402-05a) or dermal fibroblasts (Cat. No. 106-05a) were first sown in 12-well culture plates and cultured at 37° C., 5% CO2 in Ham's F12 medium, to which 10% fetal calf serum, 20 U/ml penicillin-streptomycin and 50 μg/ml ascorbic acid were added. On every other day, the culture medium was replaced by new culture medium until the cells had reached 80% confluence. […] To investigate the collagen metabolism, the amount of newly synthesized collagen was determined after stimulating the cells with 0.5 mg/ml BCP for three weeks. The synthesized collagen was isolated using the Sircol assay (Article No. 054S5000, 2019, tebu-bio, Offenbach, Germany, or Biocolor Ltd., UK) according to the manufacturer's instructions. In brief, the culture medium was initially discarded and the adherent cell layers were digested with 0.1 mg pepsin solution in 0.5 M acetic acid at 4° C. overnight. The cell suspensions were neutralized by adding 100 μl of an acid-neutralizing reagent. The synthesized collagen was then separated off by adding 200 μl of an isolation and concentration solution with vigorous shaking at 4° C. overnight. After centrifugation (12,000 rpm, 10 min) and discarding the supernatant, the isolated collagen was resuspended in 1 ml of Sircol dye solution. After 30 minutes of shaking and another centrifugation, the collagen pellet was covered with 750 μl of cold acidic solid washing reagent. After another centrifugation, the supernatant was again discarded and the enriched collagen was taken up in 250 μl of alkaline solution. In each case 200 μl of the sample solutions were used for photometric quantification of the synthesized collagen. The absorbance was measured at a wavelength of 492 nm. The amount of collagen synthesized in each case was determined on the basis of standardized collagen solutions.

Assay [2] deals with human chondrocytes. The assay can be described thus: Sircol collagen assay, collagen synthesis by chondrocytes. As to conditions: 0.5 mg/ml peptide, three weeks stimulation. The method, then:
as §1

Assay [3] concerns human dermal fibroblasts. In words: Blyscan glycosaminoglycan assay, proteoglycan synthesis by dermal fibroblasts. Particulars: 0.5 mg/ml, two weeks stimulation; for increase in collagen synthesis (in the proteoglycan assay, dermal fibroblasts): non-hydroxylated peptides; for increase in the synthesis of proteoglycans by dermal fibroblasts compared to untreated controls: hydroxylated peptides. The procedure: The human cells used were obtained from tebu-bio GmbH, Offenbach, Germany. The chondrocytes (Cat. No. 402-05a) or dermal fibroblasts (Cat. No. 106-05a) were first sown in 12-well culture plates and cultured at 37° C., 5% CO2 in Ham's F12 medium, to which 10% fetal calf serum, 20 U/ml penicillin-streptomycin and 50 μg/ml ascorbic acid were added. On every other day, the culture medium was replaced by new culture medium until the cells had reached 80% confluence. […] The Blyscan glycosaminoglycan assay (Article No. 054B3000, 2019, tebu-bio, Offenbach, Germany, or Biocolor Ltd., UK) was used to determine proteoglycans. The biosynthesis of proteoglycans was determined after stimulating dermal fibroblasts for two weeks. According to the manufacturer's instructions, after discarding the culture medium, the cell layers were covered with 1 ml of papain extraction solution and incubated for three hours at 65° C. with vigorous shaking. The cell suspensions were then centrifuged (10,000 g, 10 min) and the supernatants were collected. After adding 1 ml of Blyscan dye solution and shaking (30 min), the supernatants were centrifuged again (12,000 rpm, 10 min) and then discarded. The isolated proteoglycan pellets were resuspended in 500 μl of dissociation solution. A photometric determination of the synthesized proteoglycan in 200 μl sample solution was carried out at a wavelength of 656 nm in comparison to untreated control experiments.

For assay [4], the system named is human chondrocytes. In words: Blyscan glycosaminoglycan assay, proteoglycan synthesis by chondrocytes. Particulars: 0.5 mg/ml; for increase in the synthesis of proteoglycans by chondrocytes compared to untreated controls: non-hydroxylated peptides; for increase in collagen synthesis (in the proteoglycan assay, chondrocytes): hydroxylated peptides.

With “GAPGKDGVRGL [SEQ ID No. 11, collagen peptide comprising 11 amino acids]”, in the assay on human dermal fibroblasts [1], the “increase in collagen synthesis by dermal fibroblasts compared to untreated controls” value is reported as 19%. Further, in the assay on human chondrocytes [2], the “increase in collagen synthesis by chondrocytes compared to untreated controls” value was found to be 16%. Further, the “increase in collagen synthesis (in the proteoglycan assay, dermal fibroblasts)” value with human dermal fibroblasts [3] is reported as 18%. In addition, the “increase in the synthesis of proteoglycans by chondrocytes compared to untreated controls” value in the assay with human chondrocytes [4] amounted to 28%.
The corresponding values for “GAPGKDGVRGLTGPIGPPGPAGA [SEQ ID No. 12, collagen peptide comprising 23 amino acids]” are 22%, 24%, 19% and 23%.
On to “GAPGKDGVRGLTGPIGPPGPAGAPGDKGEAGPS [SEQ ID No. 2, collagen peptide comprising 33 amino acids]”, for which the “increase in collagen synthesis by dermal fibroblasts compared to untreated controls” value in the assay on human dermal fibroblasts [1] stood at 22%. Besides, in the assay on human chondrocytes [2], the “increase in collagen synthesis by chondrocytes compared to untreated controls” value was found to be 16%. In addition, the “increase in collagen synthesis (in the proteoglycan assay, dermal fibroblasts)” value in the assay on human dermal fibroblasts [3] was found to be 18%. In addition, the “increase in the synthesis of proteoglycans by chondrocytes compared to untreated controls” value with human chondrocytes [4] worked out at 22%.
As to “GPPGPAGEKGAPGADGPAGAPGTPGPQGIAGQRGV [SEQ ID No. 16, collagen peptide comprising 35 amino acids]”, the “increase in collagen synthesis by dermal fibroblasts compared to untreated controls” value with human dermal fibroblasts [1] was 22%. Further, in the assay with human chondrocytes [2], the “increase in collagen synthesis by chondrocytes compared to untreated controls” value is 31%. For the same substance, the “increase in collagen synthesis (in the proteoglycan assay, dermal fibroblasts)” value in the assay on human dermal fibroblasts [3] is reported as 18%. In the assay with human chondrocytes [4], the “increase in the synthesis of proteoglycans by chondrocytes compared to untreated controls” value was determined as 18%.
On to “Gly-Ala-4Hyp-Gly-Lys-Asp-Gly-Val-Arg-Gly-Leu (GA[Hyp]GKDGVRGL) [SEQ ID No. 17, collagen peptide comprising 11 amino acids]”, for which the “increase in collagen synthesis by dermal fibroblasts compared to untreated controls” value with human dermal fibroblasts [1] is reported as 42%. Besides, the “increase in collagen synthesis by chondrocytes compared to untreated controls” value in the assay with human chondrocytes [2] was determined as 33%. Besides, the “increase in the synthesis of proteoglycans by dermal fibroblasts compared to untreated controls” value in the assay on human dermal fibroblasts [3] turned out to be 24%. Also, the “increase in collagen synthesis (in the proteoglycan assay, chondrocytes)” value in the assay on human chondrocytes [4] worked out at 31%.
Take “Gly-Ala-4Hyp-Gly-Lys-Asp-Gly-Val-Arg-Gly-Leu-Thr-Gly-4Hyp-Ile-Gly-4Hyp-4Hyp-Gly-4Hyp-Ala-Gly-Ala-4Hyp-Gly-Asp-Lys-Gly-Glu-Ala-Gly-4Hyp-Ser (GA[Hyp]GKDGVRGLTG[Hyp]IG[Hyp][Hyp]G[Hyp]AGA[Hyp]GDKGEAG[Hyp]S) [SEQ ID No. 25, collagen peptide comprising 33 amino acids]”: the “increase in collagen synthesis by dermal fibroblasts compared to untreated controls” value with human dermal fibroblasts [1] stood at 27%. For the same substance, the “increase in collagen synthesis by chondrocytes compared to untreated controls” value with human chondrocytes [2] came out at 19%. In addition, the “increase in the synthesis of proteoglycans by dermal fibroblasts compared to untreated controls” value in the assay on human dermal fibroblasts [3] was found to be 23%.
“Gly-Ala-4Hyp-Gly-Lys-Asp-Gly-Val-Arg-Gly-Leu-Thr-Gly-Pro-Ile-Gly-Pro-4Hyp-Gly-Pro-Ala-Gly-Ala (GA[Hyp]GKDGVRGLTGPIGP[Hyp]GPAGA) [SEQ ID No. 18, collagen peptide comprising 23 amino acids]”: the “increase in collagen synthesis by dermal fibroblasts compared to untreated controls” value in the assay with human dermal fibroblasts [1] is recorded as 40%. Moreover, the “increase in collagen synthesis by chondrocytes compared to untreated controls” value in the assay on human chondrocytes [2] came to 32%. Further, the “increase in the synthesis of proteoglycans by dermal fibroblasts compared to untreated controls” value in the assay with human dermal fibroblasts [3] is 31%. Besides, the “increase in collagen synthesis (in the proteoglycan assay, chondrocytes)” value in the assay on human chondrocytes [4] is 25%.
Consider “Gly-Ala-4Hyp-Gly-Lys-Asp-Gly-Val-Arg-Gly-Leu-Thr-Gly-Pro-Ile-Gly-Pro-4Hyp-Gly-Pro-Ala-Gly-Ala-4Hyp (GA[Hyp]GKDGVRGLTGPIGP[Hyp]GPAGA[Hyp]) [SEQ ID No. 8, collagen peptide comprising 24 amino acids]”, for which the “increase in collagen synthesis by dermal fibroblasts compared to untreated controls” value in the assay with human dermal fibroblasts [1] is 37%. The “increase in collagen synthesis by chondrocytes compared to untreated controls” value in the assay on human chondrocytes [2] was 24%. Moreover, in the assay on human dermal fibroblasts [3], the “increase in the synthesis of proteoglycans by dermal fibroblasts compared to untreated controls” value worked out at 23%. The “increase in collagen synthesis (in the proteoglycan assay, chondrocytes)” value in the assay with human chondrocytes [4] was 20%.
In the same order, the values of “Gly-Ala-4Hyp-Gly-Lys-Asp-Gly-Val-Arg-Gly-Leu-Thr-Gly-Pro-Ile-Gly-Pro-4Hyp-Gly-Pro-Ala-Gly-Ala-4Hyp-Gly-Asp-Lys-Gly-Glu-Ala-Gly-Pro-Ser (GA[Hyp]GKDGVRGLTGPIGP[Hyp]GPAGA[Hyp]GDKGEAGPS) [SEQ ID No. 7, collagen peptide comprising 33 amino acids]” are 42%, 28%, 41% and 30%.
In the case of “Gly-Ala-4Hyp-Gly-Lys-Asp-Gly-Val-Arg-Gly-Leu-Thr-Gly-Pro-Ile-Gly-Pro-4Hyp-Gly-Pro-Ala-Gly-Ala-4Hyp-Gly-Asp-Lys-Gly-Glu-Ala-Gly-Pro-Ser-Gly-Pro-Ala-Gly-Pro-Thr-Gly-Ala-Arg-Gly-Ala-4Hyp-Gly-Asp-Arg-Gly-Glu-4Hyp-Gly-Pro-4Hyp-Gly-Pro-Ala-Gly-Phe-Ala-Gly-Pro-4Hyp-Gly-Ala-Asp-Gly-Gln-4Hyp-Gly-Ala-Lys-Gly-Glu-Pro-Gly-Asp-Ala-Gly-Ala-Lys-Gly-Asp-Ala-Gly-Pro-Pro-Gly-Pro-Ala [SEQ ID No. 20]”, in the assay with human dermal fibroblasts [1], the “increase in collagen synthesis by dermal fibroblasts compared to untreated controls” value was 37%. Further, the “increase in the synthesis of proteoglycans by dermal fibroblasts compared to untreated controls” value in the assay with human dermal fibroblasts [3] came to 29%. Also, the “increase in collagen synthesis (in the proteoglycan assay, chondrocytes)” value in the assay on human chondrocytes [4] was found to be 15%.
Consider “Gly-Leu-4Hyp-Gly-Lys-Met-Gly-Val-Phe-Gly-Leu-Thr-Gly-Pro-Ile-Gly-Pro-4Hyp-Gly-Pro-Trp-Gly-Val-4Hyp-Gly-His-Lys-Gly-Tyr-Leu-Gly-Pro-Thr (GL[Hyp]GKMGVFGLTGPIGP[Hyp]GPWGV[Hyp]GHKGYLGPT) [SEQ ID No. 27, collagen peptide comprising 33 amino acids]”, for which the “increase in collagen synthesis by dermal fibroblasts compared to untreated controls” value in the assay on human dermal fibroblasts [1] was determined as 27%. Besides, the “increase in the synthesis of proteoglycans by dermal fibroblasts compared to untreated controls” value with human dermal fibroblasts [3] is 26%.
As to “Gly-Leu-4Hyp-Gly-Lys-Tyr-Gly-Val-His-Gly-Leu-Thr-Gly-Pro-Leu-Gly-Pro-4Hyp-Gly-Pro-Met-Gly-Ile-4Hyp-Gly-Trp-Lys-Gly-Phe-Val-Gly-Pro-Thr (GL[Hyp]GKYGVHGLTGPLGP[Hyp]GPMGI[Hyp]GWKGFVGPT) [SEQ ID No. 28, collagen peptide comprising 33 amino acids]”, the “increase in collagen synthesis by dermal fibroblasts compared to untreated controls” value with human dermal fibroblasts [1] worked out at 22%. Further, the “increase in the synthesis of proteoglycans by dermal fibroblasts compared to untreated controls” value with human dermal fibroblasts [3] came out at 22%.
In the case of “Gly-Pro-4Hyp-Gly-Pro-Leu-Gly-Met-Lys-Gly-Leu-4Hyp-Gly-Val-Trp-Gly-Pro-Phe-Gly-Leu-4Hyp-Gly-Thr-Pro-Gly-Pro-His-Gly-Ile-Thr-Gly-Tyr-Lys-Gly-Val [SEQ ID No. 29]”, the “increase in collagen synthesis by dermal fibroblasts compared to untreated controls” value with human dermal fibroblasts [1] is recorded as 21%. Besides, the “increase in the synthesis of proteoglycans by dermal fibroblasts compared to untreated controls” value in the assay on human dermal fibroblasts [3] came out at 21%.
“Gly-Pro-4Hyp-Gly-Pro-Val-Gly-Thr-Lys-Gly-Leu-4Hyp-Gly-Phe-Tyr-Gly-Pro-Leu-Gly-Ile-4Hyp-Gly-His-Pro-Gly-Pro-Trp-Gly-Met-Leu-Gly-Thr-Lys-Gly-Val [SEQ ID No. 30]”: in the assay with human dermal fibroblasts [1], the “increase in collagen synthesis by dermal fibroblasts compared to untreated controls” value amounted to 21%. In addition, the “increase in the synthesis of proteoglycans by dermal fibroblasts compared to untreated controls” value in the assay with human dermal fibroblasts [3] is 22%.
In the case of “His-His-His-His-His-His-Gly-Ala-4Hyp-Gly-Lys-Asp-Gly-Val-Arg-Gly-Leu-Thr-Gly-Pro-Ile-Gly-Pro-4Hyp-Gly-Pro-Ala-Gly-Ala-4Hyp-Gly-Asp-Lys-Gly-Glu-Ala-Gly-Pro-Ser (HHHHHHGA[Hyp]GKDGVRGLTGPIGP[Hyp]GPAGA[Hyp]GDKGEAGPS) [SEQ ID No. 26, collagen peptide comprising 39 amino acids]”, the “increase in collagen synthesis by dermal fibroblasts compared to untreated controls” value with human dermal fibroblasts [1] is 12%. For the same substance, in the assay with human chondrocytes [2], the “increase in collagen synthesis by chondrocytes compared to untreated controls” value amounted to 12%. Further, the “increase in the synthesis of proteoglycans by dermal fibroblasts compared to untreated controls” value in the assay on human dermal fibroblasts [3] came to 6%.

(Values after US20220073592A1, “SYNTHETIC AND RECOMBINANT COLLAGEN PEPTIDES HAVING BIOLOGICAL ACTIVITY” (GELITA AG, priority 2018, published 2022).)
